Where a name gives a salt, the structure may show the parent alone. Read-outs that look alike come from different tables or passages of the source.
Key:
[1] = test system: SARS-CoV-2; test: EC50/EC90 determination by quantification of viral genome (real-time RT-PCR) in VeroE6 cells; type: cell-based, SARS-CoV-2 strain BavPat1; conditions: for activity at 40 µM: VeroE6, 40 µM
[2] = in vitro; conditions: African green monkey
[3] = test system: SARS-CoV-2; conditions: 5 and 10 µM
[4] = test system: SARS-CoV-2; conditions: 10 µM compound, VeroE6, MOI 0.002, 3 days after infection; normalized cell viability relative to 10 µM arbidol
[5] = test system: SARS-CoV-2; test: microbe, parasite or virus in culture; conditions: Severe acute respiratory syndrome coronavirus 2, Caco-2, read-out: replication inhibition
[6] = test system: VeroE6 cells; design: method as in PMID 29642580; conditions: cited from earlier work
[7] = test system: SARS-CoV-2; test: microbe, parasite or virus in culture; conditions: Severe acute respiratory syndrome coronavirus 2, Vero C1008, read-out: cell viability
[8] = test system: VeroE6 cells; conditions: VeroE6, no virus, CellTiter Blue
[9] = Severe acute respiratory syndrome coronavirus 2, Vero C1008, 48 h, VeroE6, viral RNA by RT-qPCR, 2 days, read-out: EC50
[10] = Severe acute respiratory syndrome coronavirus 2, Vero C1008, 48 h, VeroE6, viral RNA by RT-qPCR, 2 days, read-out: EC90
[11] = selectivity index CC50/EC50, VeroE6
[12] = Severe acute respiratory syndrome coronavirus 2, Vero C1008, 48 h
[13] = Severe acute respiratory syndrome coronavirus 2, Vero C1008, 48 h, VeroE6, viral RNA by RT-qPCR, 2 days
[14] = VeroE6, viral RNA by RT-qPCR, 2 days, read-out: EC50

CCCc1nc(C(C)(C)O)c(C(=O)O)n1Cc1ccc(-c2ccccc2-c2nnn[nH]2)cc1 [Olmesartan]
EC50 [1, 9]: ≥ 40 µM
activity at 40 µM [1]: lack of activity

CCCCOc1ccc(C(=O)CCN2CCCCC2)cc1 [Dyclonine hydrochloride]
CC50 at 2 days ([2]; VeroE6 cells (no virus)): > 40 µM
antiviral effect in Caco-2 cells (in words) [3]: Arbidol-like result
EC50 [1, 9]: 10 µM
EC90 [1, 10]: > 40 µM
SI [1, 11]: > 4

CCCCC[C@H](O)/C=C/[C@H]1[C@H](O)CC(=O)[C@@H]1CCCCCCC(=O)O [Alprostadil]
CC50 at 2 days ([2]; VeroE6 cells (no virus)): > 40 µM
EC90 [1, 12]: > 40 µM
EC50 [1, 13]: 5.39 µM
SI [1, 11]: > 7.4

C=CCOc1ccccc1OCC(O)CNC(C)C (stereo not shown) [Oxprenolol hydrochloride]
CC50 at 2 days ([2]; VeroE6 cells (no virus)): > 40 µM
EC50 [1, 9]: 20.2 µM
EC90 [1, 10]: > 40 µM
SI [1, 11]: > 2

CCN(CC)CCCC(C)Nc1ccnc2cc(Cl)ccc12 (stereo not shown) [Chloroquine diphosphate]
Inhibition index [4]: 1.35

CC(C)(C)NC[C@H](O)c1ccc(O)c(CO)c1 [Levalbuterol]
EC50 [1, 9]: ≥ 40 µM

CCOc1nc2cccc(C(=O)O)c2n1Cc1ccc(-c2ccccc2-c2nnn[nH]2)cc1 [Candesartan]
activity at 40 µM [1]: lack of activity

C[C@]12CC[C@H](O)C[C@@H]1CC[C@@H]1[C@@H]2CC[C@]2(C)C(=O)CC[C@@H]12 [Epiandrosterone]
Inhibition index [4]: 1.07

CCC(CC)COC(=O)[C@H](C)N[P@](=O)(OC[C@H]1O[C@@](C#N)(c2ccc3c(N)ncnn23)[C@H](O)[C@@H]1O)Oc1ccccc1 [Remdesivir]
inhibition at 5 µM [5]: 100%
inhibition at 10 µM [5]: 100%

CCOC(=O)c1c(CSc2ccccc2)n(C)c2cc(Br)c(O)c(CN(C)C)c12 [Arbidol]
CC50 [6]: > 40 µM
antiviral effect in Caco-2 cells (in words) [3]: weaker than the one observed in VeroE6
EC50 [1, 9]: 10.7 µM
EC90 [1, 10]: 15.2 µM
SI [1, 11]: > 3.7
viability at 10 µM [7]: 70 to 90%

Spiramycin
CC50 [8]: > 40 µM
SI [1]: > 5
EC50 [1, 14]: 7.95 µM
EC90 ([1]; VeroE6, viral RNA by RT-qPCR, 2 days, read-out: EC90): 10.5 µM

C=C1C[C@@H]2[C@H](CC[C@]3(C)C(=O)CC[C@@H]23)[C@@]2(C)C=CC(=O)C=C12 [Exemestane]
CC50 at 2 days [2]: > 40 µM
antiviral effect in Caco-2 cells (in words) [3]: Arbidol-like result
EC90 [1, 12]: 9.86 µM
EC50 [1, 13]: 7.51 µM
Inhibition index [4]: 1.10

CN1CCN2c3ncccc3Cc3ccccc3C2C1 (stereo not shown) [Mirtazapine]
Inhibition index [4]: 1.03

C=C[C@H]1C[N@@]2CC[C@H]1C[C@@H]2[C@@H](O)c1ccnc2ccc(OC)cc12 [Quinidine hydrochloride]
CC50 at 2 days ([2]; VeroE6 cells (no virus)): > 40 µM
SI [1]: > 7.8
EC50 [1, 9]: 5.11 µM
EC90 [1, 10]: > 40 µM

Cn1nnnc1SCC1=C(C(=O)O)N2C(=O)[C@@H](NC(=O)[C@H](O)c3ccccc3)[C@H]2SC1 [Cefamandole]
EC50 [1, 9]: ≥ 40 µM

COc1ncnc(NS(=O)(=O)c2ccc(N)cc2)c1OC [Sulfadoxine]
CC50 at 2 days [2]: > 40 µM
antiviral effect in Caco-2 cells (in words) [3]: Arbidol-like result
EC90 [1, 12]: > 40 µM
EC50 [1, 13]: > 30 µM
EC50 [1, 14]: 35.4 µM
SI [1, 11]: > 1.13

CC(=O)[C@H]1CC[C@H]2[C@@H]3CC=C4C[C@@H](O)CC[C@]4(C)[C@H]3CC[C@]12C [Pregnenolone]
Inhibition index [4]: 1.66

— publication PMC7403393 (Scientific Reports, 2020)
